Reference: patent US20050282863A1, “Novel-N substituted dihydrobenzothiepino, dihydrobenzoxepino and tetrahydro benzocyclohepta indoles as selective estrogen receptor modulators” (Council of Scientific & Industrial Research, priority 2004, published 2005)

Biological target: T1, estrogen receptors (Rattus norvegicus, UniProt P06211)
T1 construct: Aliquot of uterine cytosol (200 μl; 2 uteri per ml) prepared in TEA buffer; from tissue; host or cells: uterine cytosol of immature estradiol-primed 20-21 day old rats
T1 sequence (P06211 1-600): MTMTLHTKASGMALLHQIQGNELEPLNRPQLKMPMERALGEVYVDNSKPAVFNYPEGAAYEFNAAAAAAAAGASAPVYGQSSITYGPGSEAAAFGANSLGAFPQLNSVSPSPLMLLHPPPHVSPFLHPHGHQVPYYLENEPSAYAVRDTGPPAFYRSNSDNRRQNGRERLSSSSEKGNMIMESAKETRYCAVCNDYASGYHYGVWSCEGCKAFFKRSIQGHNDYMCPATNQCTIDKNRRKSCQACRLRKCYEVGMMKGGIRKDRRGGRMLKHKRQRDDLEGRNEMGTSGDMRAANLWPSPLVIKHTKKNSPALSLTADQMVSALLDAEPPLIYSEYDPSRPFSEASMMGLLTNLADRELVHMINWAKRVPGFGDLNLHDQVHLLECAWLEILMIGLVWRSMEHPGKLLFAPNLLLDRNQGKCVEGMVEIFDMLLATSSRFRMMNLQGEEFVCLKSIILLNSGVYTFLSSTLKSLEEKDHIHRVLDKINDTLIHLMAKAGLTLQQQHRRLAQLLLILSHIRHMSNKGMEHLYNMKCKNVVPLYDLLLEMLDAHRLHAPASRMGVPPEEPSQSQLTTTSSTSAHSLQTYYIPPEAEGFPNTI
Assay: Relative binding affinity (RBA) to estrogen receptors, 3H-estradiol competition assay
Parameters: key: % of 17-beta-estradiol binding affinity (estradiol = 100)
Conditions: relative to 17-beta-estradiol (=100, percentage value); rat uterine cytosol, 3H-E2, 18 hrs at 4° C.
Summary of the method: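 Competition against a fixed concentration of ³H-estradiol for cytosolic receptor from uteri of immature (20-21 day) estradiol-primed rats, in TEA buffer pH 7.4 with ≤5% DMF, 18 h at 4° C. Free ligand removed with dextran-coated charcoal; bound radioactivity counted and RBA read from percent-bound vs log concentration plot, expressed as percentage.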

| SMILES | RBA |
| --- | --- |
| CCCCN(C)CCCCCn1c2c(c3ccccc31)CCSc1ccccc1-2 [Example number 13, 12-[5-(N-butylmethylamino)pentyl]-6,7-dihydro-12H-benzothiepino [5,4-b]indole] | <0.001 |
| c1ccc2c(c1)SCCc1c-2n(CCCCCCN2CCCCC2)c2ccccc12 [Example number 18, 12-[6-(Piperidine-1-yl)hexyl]-6,7-dihydro-12H-benzothiepino [5,4-b]indole] | 0.17 |
